Data: ChEMBL document CHEMBL4602639, “A novel series of 11-O-carbamoyl-3-O-descladinosyl clarithromycin derivatives bearing 1,2,3-triazole group: Design, synthesis and antibacterial evaluation” (2020)
≈ marks a conversion by molar mass, not a printed value.

Legend:
Type in all cases: functional
Staphylococcus aureus [1] = experiment: Antibacterial activity against methicillin-resistant Staphylococcus aureus ATCC 43300 by standard broth microdilution method
Streptococcus pyogenes = experiment: Antibacterial activity against erythromycin resistant Streptococcus pyogenes R1 by standard broth microdilution method
Streptococcus pneumoniae [2] = experiment: Antibacterial activity against erythromycin-resistant Streptococcus pneumoniae AB11 expressing ermB and me/A genes by standard broth microdilution method
Pseudomonas aeruginosa = experiment: Antibacterial activity against penicillin-susceptible Pseudomonas aeruginosa ATCC 27853 by standard broth microdilution method
Staphylococcus aureus [3] = experiment: Antibacterial activity against erythromycin-susceptible Staphylococcus aureus ATCC 25923 by standard broth microdilution method
Escherichia coli = experiment: Antibacterial activity against penicillin-susceptible Escherichia coli ATCC 25922 by standard broth microdilution method
Streptococcus pneumoniae [4] = experiment: Antibacterial activity against erythromycin-resistant Streptococcus pneumoniae B1 expressing ermB gene by standard broth microdilution method
Bacillus subtilis = experiment: Antibacterial activity against penicillin-susceptible Bacillus subtilis ATCC 9372 by standard broth microdilution method

SMILES	MIC (Staphylococcus aureus [1])	MIC (Streptococcus pyogenes)	MIC (Streptococcus pneumoniae [2])	MIC (Pseudomonas aeruginosa)	MIC (Staphylococcus aureus [3])	MIC (Escherichia coli)	MIC (Streptococcus pneumoniae [4])	MIC (Bacillus subtilis)
CC[C@H]1OC(=O)[C@H](C)C(=O)[C@H](C)[C@@H](O[C@H]2O[C@@H](C)C[C@@H](N(C)C)[C@@H]2O)[C@](C)(OC)C[C@@H](C)C(=O)[C@H](C)[C@@H](OC(=O)NCCn2cc(-c3ccc([N+](=O)[O-])cc3)nn2)[C@]1(C)O	> 256 µg/mL	64 µg/mL (≈ 75.6 µM)	256 µg/mL (≈ 302 µM)	128 µg/mL (≈ 151 µM)	16 µg/mL (≈ 18.9 µM)	> 128 µg/mL	256 µg/mL (≈ 302 µM)	4 µg/mL (≈ 4.72 µM)
CC[C@H]1OC(=O)[C@H](C)C(=O)[C@H](C)[C@@H](O[C@H]2O[C@@H](C)C[C@@H](N(C)C)[C@@H]2O)[C@](C)(OC)C[C@@H](C)C(=O)[C@H](C)[C@@H](OC(=O)NCCn2cc(-c3cccc(N)c3)nn2)[C@]1(C)O	> 256 µg/mL	256 µg/mL (≈ 313 µM)	256 µg/mL (≈ 313 µM)	128 µg/mL (≈ 157 µM)	32 µg/mL (≈ 39.2 µM)	> 128 µg/mL	> 256 µg/mL	32 µg/mL (≈ 39.2 µM)
CC[C@H]1OC(=O)[C@H](C)C(=O)[C@H](C)[C@@H](O[C@H]2O[C@@H](C)C[C@@H](N(C)C)[C@@H]2O)[C@](C)(OC)C[C@@H](C)C(=O)[C@H](C)[C@@H](OC(=O)NCCn2cc(-c3ccc(OC)cc3)nn2)[C@]1(C)O	> 256 µg/mL	256 µg/mL (≈ 308 µM)	256 µg/mL (≈ 308 µM)	128 µg/mL (≈ 154 µM)	16 µg/mL (≈ 19.2 µM)	> 128 µg/mL	> 256 µg/mL	4 µg/mL (≈ 4.81 µM)
CC[C@H]1OC(=O)[C@H](C)C(=O)[C@H](C)[C@@H](O[C@H]2O[C@@H](C)C[C@@H](N(C)C)[C@@H]2O)[C@](C)(OC)C[C@@H](C)C(=O)[C@H](C)[C@@H](OC(=O)NCCn2cc(-c3ccc(C(C)(C)C)cc3)nn2)[C@]1(C)O	256 µg/mL (≈ 298 µM)	64 µg/mL (≈ 74.6 µM)	128 µg/mL (≈ 149 µM)	128 µg/mL (≈ 149 µM)	32 µg/mL (≈ 37.3 µM)	> 128 µg/mL	128 µg/mL (≈ 149 µM)	8 µg/mL (≈ 9.32 µM)
CCc1ccc(-c2cn(CCNC(=O)O[C@@H]3[C@@H](C)C(=O)[C@H](C)C[C@@](C)(OC)[C@H](O[C@H]4O[C@@H](C)C[C@@H](N(C)C)[C@@H]4O)[C@@H](C)C(=O)[C@@H](C)C(=O)O[C@H](CC)[C@@]3(C)O)nn2)cc1	> 256 µg/mL	128 µg/mL (≈ 154 µM)	256 µg/mL (≈ 308 µM)	128 µg/mL (≈ 154 µM)	32 µg/mL (≈ 38.6 µM)	> 128 µg/mL	> 256 µg/mL	4 µg/mL (≈ 4.82 µM)
CC[C@H]1OC(=O)[C@H](C)C(=O)[C@H](C)[C@@H](O[C@H]2O[C@@H](C)C[C@@H](N(C)C)[C@@H]2O)[C@](C)(OC)C[C@@H](C)C(=O)[C@H](C)[C@@H](OC(=O)NCCn2cc(-c3ccccc3OC)nn2)[C@]1(C)O	> 256 µg/mL	256 µg/mL (≈ 308 µM)	> 256 µg/mL	128 µg/mL (≈ 154 µM)	16 µg/mL (≈ 19.2 µM)	> 128 µg/mL	> 256 µg/mL	4 µg/mL (≈ 4.81 µM)
CC[C@H]1OC(=O)[C@H](C)[C@@H](O[C@H]2C[C@@](C)(OC)[C@@H](O)[C@H](C)O2)[C@H](C)[C@@H](O[C@@H]2O[C@H](C)C[C@H](N(C)C)[C@H]2O)[C@](C)(O)C[C@@H](C)CN(C)[C@H](C)[C@@H](O)[C@]1(C)O [AZITHROMYCIN]	> 256 µg/mL	256 µg/mL (≈ 342 µM)	256 µg/mL (≈ 342 µM)	4 µg/mL (≈ 5.34 µM)	0.25 µg/mL (≈ 0.334 µM)	> 128 µg/mL	> 256 µg/mL	0.25 µg/mL (≈ 0.334 µM)
CC[C@H]1OC(=O)[C@H](C)C(=O)[C@H](C)[C@@H](O[C@H]2O[C@@H](C)C[C@@H](N(C)C)[C@@H]2O)[C@](C)(OC)C[C@@H](C)C(=O)[C@H](C)[C@@H](OC(=O)NCCn2cc(-c3cccc(Br)c3)nn2)[C@]1(C)O	> 256 µg/mL	128 µg/mL (≈ 145 µM)	128 µg/mL (≈ 145 µM)	128 µg/mL (≈ 145 µM)	16 µg/mL (≈ 18.2 µM)	> 128 µg/mL	256 µg/mL (≈ 291 µM)	8 µg/mL (≈ 9.08 µM)
CC[C@H]1OC(=O)[C@H](C)C(=O)[C@H](C)[C@@H](O[C@H]2O[C@@H](C)C[C@@H](N(C)C)[C@@H]2O)[C@](C)(OC)C[C@@H](C)C(=O)[C@H](C)[C@@H](OC(=O)NCCn2cc(-c3ccc(Cl)cc3)nn2)[C@]1(C)O	256 µg/mL (≈ 306 µM)	64 µg/mL (≈ 76.5 µM)	128 µg/mL (≈ 153 µM)	128 µg/mL (≈ 153 µM)	8 µg/mL (≈ 9.56 µM)	> 128 µg/mL	128 µg/mL (≈ 153 µM)	4 µg/mL (≈ 4.78 µM)
CC[C@H]1OC(=O)[C@H](C)C(=O)[C@H](C)[C@@H](O[C@H]2O[C@@H](C)C[C@@H](N(C)C)[C@@H]2O)[C@](C)(OC)C[C@@H](C)C(=O)[C@H](C)[C@@H](OC(=O)NCCn2cc(-c3cccc(C)c3)nn2)[C@]1(C)O	> 256 µg/mL	256 µg/mL (≈ 314 µM)	256 µg/mL (≈ 314 µM)	128 µg/mL (≈ 157 µM)	32 µg/mL (≈ 39.2 µM)	> 128 µg/mL	> 256 µg/mL	8 µg/mL (≈ 9.8 µM)
